Reference: patent publication US9770026B2, “Substituted pyrimidine compound and uses thereof” (Shenyang Sinochem Agrochemicals R&D Co., Ltd., priority 2012, dated 2017)

Tests used:
Diamond back moth = experiment: insecticidal activity against diamond back moth, airbrush spray; assay type: in vivo; conditions: 72 h, 600 mg/L
Procedure, shortened: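 Airbrush leaf-disc spray test: both faces of 2 cm cabbage discs received 0.5 ml of test solution at 0.7 kg/cm^2. Solutions were made in acetone:methanol (1:1) and brought to concentration with 0.1% Tween 80 in water. Ten second-instar larvae per disc, triplicates, were held at 25° C and 60˜70% R.H., with mortality recorded at 72 hrs.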

[1] = test system: Green peach aphids (Myzus Persicae Sulzer); experiment: bioactivity test against green peach aphid, airbrush foliar spray; assay type: in vivo; conditions: Myzus persicae, foliar, 48 h, contrastive test, read-out: Insecticidal activity against peach aphid (%); for pest or weed control at 600 µg/mL: 600 mg/L; for pest or weed control at 10 µg/mL: 10 mg/L; for pest or weed control at 100 µg/mL: 100 mg/L
Procedure, shortened: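 Aphids (15-30 per cabbage leaf disc) on moist filter paper were airbrush-sprayed at 10 psi, 0.5 mL, with compound from acetone:methanol (1:1) diluted in water with 0.1% tween 80. Held at 25±1 C, 60±5% RH; survivors counted after 48 hrs to give death rates.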

corn rust = experiment: protectant activity in vivo against corn rust; conditions: Zea mays, 168 h, protectant activity; for pest or weed control at 6.25 µg/mL: read-out: control effect against corn rust (%), 6.25 mg/L; for pest or weed control at 25 µg/mL: read-out: control effect against corn rust (%), 25 mg/L; for pest or weed control at 100 µg/mL: read-out: control effect against corn rust (%), 100 mg/L; for pest or weed control at 400 µg/mL: read-out: control effect against corn rust (%), 400 mg/L
armyworm = experiment: bioactivity test against armyworm, airbrush spray; assay type: in vivo; conditions: 72 h, read-out: Insecticidal activity against armyworm (%); for pest or weed control at 600 µg/mL: 600 mg/L; for pest or weed control at 10 µg/mL: 10 mg/L
cucumber gray mold = experiment: fungicidal activity in vitro (inhibition rate) against cucumber gray mold; assay type: cell-based; conditions: 25 ppm, in vitro; read-out: inhibition rate against cucumber gray mold
wheat powdery mildew = experiment: protectant activity in vivo against wheat powdery mildew; conditions: Triticum aestivum, 168 h, protectant activity; for pest or weed control at 6.25 µg/mL: read-out: control effect against wheat powdery mildew (%), 6.25 mg/L; for pest or weed control at 25 µg/mL: read-out: control effect against wheat powdery mildew (%), 25 mg/L; for pest or weed control at 100 µg/mL: read-out: control effect against wheat powdery mildew (%), 100 mg/L; for pest or weed control at 400 µg/mL: read-out: control effect against wheat powdery mildew (%), 400 mg/L
cucumber downy mildew = experiment: protectant activity in vivo against cucumber downy mildew; conditions: Cucumis sativus, 168 h, protectant activity; for pest or weed control at 25 µg/mL: read-out: control effect against cucumber downy mildew (%), 25 mg/L; for pest or weed control at 50 µg/mL: read-out: control effect against cucumber downy mildew (%), 50 mg/L; for pest or weed control at 100 µg/mL: read-out: control effect against cucumber downy mildew (%), 100 mg/L; for pest or weed control at 400 µg/mL: read-out: control effect against cucumber downy mildew (%), 400 mg/L
carmine spider mite = experiment: bioactivity test against carmine spider mite, airbrush spray; assay type: in vivo; conditions: for pest or weed control at 10 µg/mL / pest or weed control at 100 µg/mL / pest or weed control at 600 µg/mL: Tetranychus cinnabarinus, 72 h, contrastive test, read-out: Insecticidal activity against carmine spider mite (% ); for pest or weed control at 10 µg/mL: 10 mg/L; for pest or weed control at 100 µg/mL: 100 mg/L; for pest or weed control at 600 µg/mL: 600 mg/L
Procedure, shortened: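 Broadbean seedlings infested with adult mites were sprayed with compound (acetone/methanol stock diluted in 0.1% Tween 80 water) by airbrush at 0.7 kg/cm^2, 0.5 ml. Three replicates were run. Mortality was scored after 72 hrs.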

Row | Compound | pest or weed control at 600 µg/mL (Diamond back moth) [%] | pest or weed control at 600 µg/mL [1] [%] | pest or weed control at 6.25 µg/mL (corn rust) [%] | pest or weed control at 25 µg/mL (corn rust) [%] | pest or weed control at 100 µg/mL (corn rust) [%] | pest or weed control at 400 µg/mL (corn rust) [%] | pest or weed control at 600 µg/mL (armyworm) [%] | inhibition at 25 ppm (cucumber gray mold) [%] | pest or weed control at 6.25 µg/mL (wheat powdery mildew) [%] | pest or weed control at 25 µg/mL (wheat powdery mildew) [%] | pest or weed control at 100 µg/mL (wheat powdery mildew) [%] | pest or weed control at 400 µg/mL (wheat powdery mildew) [%] | pest or weed control at 25 µg/mL (cucumber downy mildew) [%] | pest or weed control at 50 µg/mL (cucumber downy mildew) [%] | pest or weed control at 100 µg/mL (cucumber downy mildew) [%] | pest or weed control at 400 µg/mL (cucumber downy mildew) [%] | pest or weed control at 10 µg/mL [1] [%] | pest or weed control at 100 µg/mL [1] [%] | pest or weed control at 10 µg/mL (carmine spider mite) [%] | pest or weed control at 600 µg/mL (carmine spider mite) [%] | further results
1 | Cc1ncnc(NCc2ccc(Oc3ccc(C(F)(F)F)cn3)cc2)c1Cl [CK22, reference compound] | 0 | 0 | 0 | 40 | 100 | 100 | 0 | 0 | 0 | 50 | 90 | 100 | 60 | 75 | 98 | 100 |  |  |  |  | 
2 | CC(Cl)c1ncnc(NCCc2ccc(Oc3ccc(C(F)(F)F)cn3)cc2)c1Cl (centres unmarked) [CK24, reference compound] |  | 100 | 0 | 20 | 50 | 100 |  | < 50 |  |  | 0 | 0 |  |  |  |  | 89 | 100 | 85 | 100 | pest or weed control at 2.5 µg/mL ([1]; 2.5 mg/L): 0%; pest or weed control at 5 µg/mL ([1]; 5 mg/L): 28%; pest or weed control at 10 µg/mL (armyworm): 0%; Insecticidal activity against carmine spider mite (% ) (carmine spider mite; 2.5 mg/L): 5%; Insecticidal activity against carmine spider mite (% ) (carmine spider mite; 5 mg/L): 15%; pest or weed control at 100 µg/mL (carmine spider mite): 100%
3 | CCc1ncnc(OCc2ccc(Oc3ccc(Cl)cc3)nc2)c1Cl [CK25, reference compound] | 0 | 0 |  |  |  | 0 | 0 | < 50 |  |  |  | 0 | 0 | 0 | 0 | 100 |  |  |  | 0 | 
4 | N#Cc1ccc(Oc2ccc(CCNc3nc(Cl)ncc3Cl)cc2)nc1 [CK26, reference compound] | 0 | 100 | 0 | 0 | 0 | 100 | 0 | 0 |  |  |  | 70 | 0 | 40 | 60 | 100 | 45 | 48 |  | 0 | 
5 | COC(=O)c1nc(Cl)nc(NC(C)c2ccc(Oc3ncc(C(F)(F)F)cc3Cl)cc2)c1Cl (centres unmarked) [CK34, reference compound] | 0 | 65 |  |  |  | 0 | 0 | 0 |  |  |  | 0 |  |  |  | 85 |  |  |  | 0 | 
6 | Cc1ncnc(NCc2ccc(Oc3ccc(C(F)(F)F)cc3)cc2)c1Cl [CK53, reference compound] | 0 | 84 |  |  |  | 0 | 0 | 0 | 0 | 0 | 80 | 100 | 60 | 85 | 90 | 100 | 34 | 66 | 12 | 100 | pest or weed control at 100 µg/mL (carmine spider mite): 100%
7 | CCc1ncnc(NC(=O)Cc2ccc(Oc3ccc(C(F)(F)F)cc3Cl)cc2)c1Cl [CK57, reference compound] | 0 | 61 |  |  |  | 0 | 0 | < 50 |  |  |  | 0 |  |  |  | 50 |  |  |  | 33 | 
8 | FC(F)(F)c1ccc(Oc2ccc(CCNc3ncnc(Cl)c3Cl)cc2)nc1 [CK73, reference compound] |  | 100 | 0 | 10 | 90 | 100 | 100 | 0 |  |  |  | 40 | 60 | 95 | 98 | 98 | 0 | 100 | 24 | 100 | pest or weed control at 10 µg/mL (armyworm): 0%; pest or weed control at 100 µg/mL (armyworm; 100 mg/L): 50%; pest or weed control at 100 µg/mL (carmine spider mite): 85%
9 | FC(F)(F)c1cccnc1Oc1ccc(CCNc2nc(Cl)ncc2Cl)cc1 [CK81, reference compound] | 0 | 75 |  |  |  | 80 | 14 | 0 |  |  |  | 40 |  |  |  |  |  |  |  | 0 | 
10 | FC(F)(F)c1cccnc1Oc1ccc(CCNc2cc(Cl)nc(Cl)n2)cc1 [CK82, reference compound] | 17 | 86 | 0 | 0 | 30 | 100 | 0 | 0 | 0 | 0 | 80 | 100 |  |  |  |  | 0 |  |  | 23 | 
11 | N#Cc1ccc(Oc2ccc(CCNc3cc(Cl)ncn3)cc2)nc1 [CK83, reference compound] | 17 | 100 |  |  |  | 30 | 29 | 0 | 40 | 70 | 100 | 100 | 85 | 98 | 100 | 100 | 11 | 100 |  |  | 
12 | Cc1nc(Cl)cc(NCCc2ccc(Oc3ccc(C#N)cn3)cc2)n1 [CK84, reference compound] | 0 | 100 | 0 | 60 | 90 | 100 | 0 | 0 |  |  |  |  | 85 | 100 | 100 | 100 | 7 | 43 | 0 | 100 | pest or weed control at 100 µg/mL (carmine spider mite): 0%
